{"source": "paper PMC4955970", "about": "“Stable, synthetic analogs of diadenosine tetraphosphate inhibit rat and human P2X3 receptors and inflammatory pain” (Molecular Pain, 2016)", "key": {"[1]": {"biological_target": "T1, rat P2X2 receptors (Rattus norvegicus, UniProt P49653)", "T1 construct": "expressed in transfected cells; host or cells: HEK293", "T1 sequence (P49653 1-472)": "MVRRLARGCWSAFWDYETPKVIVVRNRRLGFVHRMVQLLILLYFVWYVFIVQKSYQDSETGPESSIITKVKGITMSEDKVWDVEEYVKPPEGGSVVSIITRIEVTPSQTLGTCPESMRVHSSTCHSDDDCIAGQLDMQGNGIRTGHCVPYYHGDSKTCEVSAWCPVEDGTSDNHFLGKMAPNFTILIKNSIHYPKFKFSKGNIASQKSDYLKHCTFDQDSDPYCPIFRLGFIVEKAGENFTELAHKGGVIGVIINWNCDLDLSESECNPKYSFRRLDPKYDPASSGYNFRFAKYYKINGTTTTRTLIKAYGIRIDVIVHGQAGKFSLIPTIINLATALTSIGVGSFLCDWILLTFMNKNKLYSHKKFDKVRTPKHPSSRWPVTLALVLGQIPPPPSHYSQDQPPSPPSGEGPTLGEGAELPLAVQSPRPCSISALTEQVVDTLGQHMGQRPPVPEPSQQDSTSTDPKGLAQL", "test": "Whole-cell patch clamp on HEK293 cells expressing rat P2X2 receptors (ATP-induced currents)", "assay_type": "cell-based", "settings": "1 µM; 10 µM ATP every 2 min"}, "[2]": {"biological_target": "T2, rat P2X7 receptors (Rattus norvegicus, UniProt Q64663)", "T2 construct": "expressed in transfected cells; host or cells: HEK293", "T2 sequence (Q64663 1-595)": "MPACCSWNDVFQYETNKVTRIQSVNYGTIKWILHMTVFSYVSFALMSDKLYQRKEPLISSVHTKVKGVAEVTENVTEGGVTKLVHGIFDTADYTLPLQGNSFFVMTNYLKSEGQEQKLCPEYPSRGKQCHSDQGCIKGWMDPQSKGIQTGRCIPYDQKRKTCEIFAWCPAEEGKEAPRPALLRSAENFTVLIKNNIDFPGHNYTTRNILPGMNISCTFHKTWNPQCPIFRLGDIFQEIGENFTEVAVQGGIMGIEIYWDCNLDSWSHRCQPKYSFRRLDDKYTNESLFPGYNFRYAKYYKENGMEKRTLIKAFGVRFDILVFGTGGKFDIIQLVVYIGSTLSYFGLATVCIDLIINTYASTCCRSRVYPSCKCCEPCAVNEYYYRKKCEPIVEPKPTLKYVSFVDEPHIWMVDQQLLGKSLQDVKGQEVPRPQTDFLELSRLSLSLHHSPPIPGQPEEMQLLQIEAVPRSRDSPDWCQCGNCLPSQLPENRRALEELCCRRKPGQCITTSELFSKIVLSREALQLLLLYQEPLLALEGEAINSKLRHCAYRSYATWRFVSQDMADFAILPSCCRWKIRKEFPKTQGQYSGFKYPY", "test": "Whole-cell patch clamp on HEK293 cells expressing rat P2X7 receptors (ATP-induced currents)", "assay_type": "cell-based", "settings": "1 µM; 10 µM ATP every 2 min"}}, "note": "“Also recorded” adds a separate entry of the source.", "data": [{"smiles": "Nc1ncnc2c1ncn2[C@@H]1O[C@H](COP(=O)(O)OP(=O)(O)NP(=O)(O)OP(=O)(O)OC[C@H]2O[C@@H](n3cnc4c(N)ncnc43)[C@H](O)[C@@H]2O)[C@@H](O)[C@H]1O", "note": "[AppNHppA, diadenosine 5′,5′′′-P^1,P^4-(β,γ-imido)tetraphosphate]", "values": [{"measurement": "HAD or partial agonism effect on P2X2R-mediated currents", "setting": "[1]", "result": "did not produce any HAD or partial agonism effects; also recorded: does not inhibit"}, {"measurement": "HAD or partial agonism effect on P2X7R-mediated currents", "setting": "[2]", "result": "did not produce any HAD or partial agonism effects; also recorded: does not inhibit"}]}]}
